Data as given in patent US9481648B2, “Kinase inhibitors” (Respivert Limited, priority 2013, dated 2016).
Like-named read-outs stand apart in the source and are kept apart here.

Columns and labels:
[1] = system: human hepatocytes; experiment: Human hepatocyte stability test; type: in vitro ADME
Description: Assessment of certain in vitro ADME (absorption, distribution, metabolism, and excretion) parameters for certain compounds of the invention was conducted by BioFocus (Saffron Walden, UK).

[2] = Plasma pharmacokinetics and total colon tissue distribution in mice, single oral administration; type: in vivo, mouse (male C57BL/6); conditions: male, C57BL/6, mouse, 5 mg/kg
Description: Studies were conducted by Sai Life Sciences (Hinjewadi, Pune, India) to investigate the plasma pharmacokinetics and total colon tissue distribution of compounds of the invention. In particular, pharmacokinetic studies were carried out in: • male C57BL/6 mice, following a single oral administration; and • male Wistar rats following a single intravenous or oral administration.

[3] = biological target: GSK 3α (Homo sapiens (Human), UniProt P49840); experiment: GSK 3α enzyme inhibition (FRET, Z-LYTE; Method 2); type: biochemical; conditions: read-out: IC50 Values for Enzyme Inhibition GSK3α
How it was run: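 Z-LYTE FRET assay: GSK3-α (500 ng/mL stock) preincubated 105 min at RT with compound at 10, 1, 0.1 or 0.01 μg/mL stock. FRET peptide (8 μM stock) and ATP (40 μM stock) were then added for 1 h, followed by protease development for 1 h. Phosphorylation was read as coumarin/fluorescein emission ratio.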

[4] = biological target: p38 MAPKα (Homo sapiens (Human), UniProt Q16539); experiment: KINOMEscan enzyme binding assay (dissociation constant)
Description: (§1) Kinase enzyme binding activities of compounds disclosed herein may be determined using a proprietary assay which measures active site-directed competition binding to an immobilized ligand (Fabian, M. A. et al., Nature Biotechnol., 2005, 23:329-336). These assays may be conducted by DiscoverX (formerly Ambit; San Diego, Calif.). The percentage inhibition produced by incubation with a test compound may be calculated relative to the non-inhibited control.

[5] = biological target: Lck (Homo sapiens (Human), UniProt P06239); experiment: as above
Description: as §1

[6] = biological target: Syk (Homo sapiens (Human), UniProt P43405); experiment: as above
Description: as §1

[7] = system: endotoxin (LPS)-induced uveitis in Lewis rats; experiment: Endotoxin-induced uveitis in rats (in vivo vi); set-up: species or system rat; conditions: for IL-1β Anterior / IL-1β Posterior / IL-6 Anterior / IL-6 Posterior / MCP-1 Anterior / MCP-1 Posterior: eyes of LPS-stimulated rats, 1 mg/mL; for cytokine levels in both the anterior and posterior segments of the eyes: rats treated with intravitreal endotoxin LPS, topical dosing
Description: Male, Lewis rats (6-8 weeks old, Charles River UK Limited) are housed in cages of 3 at 19-21° C. with a 12 h light/dark cycle (07:00/19:00) and fed a standard diet of rodent chow and water ad libitum. Non-fasted rats are weighed, individually identified on the tail with a permanent marker, and receive a single intravitreal administration into the right vitreous humor (5 μL dose volume) of 100 ng/animal of LPS (Escherichia coli 0111:B4 prepared in PBS, Sigma Aldrich, UK) using a 32-gauge needle. Untreated rats are injected with PBS. […] Following euthanasia, the right eye of each animal is enucleated and dissected into front (anterior) and back (posterior) sections around the lens. Each section is weighed and homogenised in 500 μL of sterile phosphate buffered saline followed by 20 minutes centrifugation at 12000 rpm at 4° C.

[8] = system: rat, Cynomolgus macaque or human hepatocytes; experiment: Analysis of metabolites after incubation with hepatocytes; type: in vitro ADME; conditions: 10 μM
Description: Studies were conducted by BioFocus (Saffron Walden, UK) to determine the metabolic fate of the compound of Example 16 following incubation with rat, Cynomolgus macaque or human hepatocytes.
Separate incubations (n=3) of the compound of Example 16 (10 μM initial concentration) or DMSO control, were performed with cryopreserved hepatocytes from each species (0.5 million cell/mL) at 37° C. for 0, 60 and 90 minutes before termination of reactions and compound extraction with acetonitrile. Sample replicates were pooled prior to analysis.
Potential metabolites were identified using time-of-flight (TOF) and triple quadruple (TQ) mass spectrometers.

[9] = plasma, read-out: Median plasma concentration
[10] = total colon, read-out: Median total colon concentration

Lck, sequence (P06239 whole entry): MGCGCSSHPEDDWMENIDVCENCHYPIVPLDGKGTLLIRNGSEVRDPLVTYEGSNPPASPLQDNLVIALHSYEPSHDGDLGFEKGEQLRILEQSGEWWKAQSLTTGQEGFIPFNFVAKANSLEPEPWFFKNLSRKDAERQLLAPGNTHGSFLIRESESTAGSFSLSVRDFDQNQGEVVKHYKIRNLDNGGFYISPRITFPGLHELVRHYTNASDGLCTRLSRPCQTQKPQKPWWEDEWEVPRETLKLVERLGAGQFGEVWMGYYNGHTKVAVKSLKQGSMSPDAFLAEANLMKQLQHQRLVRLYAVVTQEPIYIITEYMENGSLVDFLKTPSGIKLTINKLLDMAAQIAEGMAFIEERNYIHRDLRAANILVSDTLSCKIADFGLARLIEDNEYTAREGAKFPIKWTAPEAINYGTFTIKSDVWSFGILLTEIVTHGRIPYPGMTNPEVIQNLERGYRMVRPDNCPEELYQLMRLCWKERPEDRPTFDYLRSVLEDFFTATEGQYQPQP
GSK 3α, sequence (P49840 whole entry): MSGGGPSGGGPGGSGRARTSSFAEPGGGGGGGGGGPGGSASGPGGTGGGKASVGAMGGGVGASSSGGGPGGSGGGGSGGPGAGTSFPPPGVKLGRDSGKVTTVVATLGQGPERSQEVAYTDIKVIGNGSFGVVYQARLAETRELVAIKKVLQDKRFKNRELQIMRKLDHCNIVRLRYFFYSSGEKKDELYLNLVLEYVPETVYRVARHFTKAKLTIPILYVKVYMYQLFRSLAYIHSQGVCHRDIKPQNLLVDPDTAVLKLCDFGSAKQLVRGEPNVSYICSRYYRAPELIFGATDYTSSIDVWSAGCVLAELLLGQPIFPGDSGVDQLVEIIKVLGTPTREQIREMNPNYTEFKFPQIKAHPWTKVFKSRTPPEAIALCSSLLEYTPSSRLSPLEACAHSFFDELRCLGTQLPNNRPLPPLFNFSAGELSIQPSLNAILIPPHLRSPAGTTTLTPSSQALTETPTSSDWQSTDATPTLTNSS
p38 MAPKα, sequence (Q16539 whole entry): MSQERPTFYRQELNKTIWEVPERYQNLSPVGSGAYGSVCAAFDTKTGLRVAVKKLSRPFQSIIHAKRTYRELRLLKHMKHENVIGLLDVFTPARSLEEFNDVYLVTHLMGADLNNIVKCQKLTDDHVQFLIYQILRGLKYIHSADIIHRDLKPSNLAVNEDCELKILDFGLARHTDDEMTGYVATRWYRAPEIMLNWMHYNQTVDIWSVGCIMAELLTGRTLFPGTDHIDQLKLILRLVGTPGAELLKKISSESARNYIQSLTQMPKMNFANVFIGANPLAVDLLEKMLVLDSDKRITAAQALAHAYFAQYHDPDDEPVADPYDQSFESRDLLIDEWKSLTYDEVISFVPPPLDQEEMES

SMILES: COCCOCCOCCNC(=O)c1cc(Nc2cc(Oc3ccc(NC(=O)Nc4cc(C(C)(C)C)cc(NS(C)(=O)=O)c4OC)c4ccccc34)ccn2)cc(OC)c1 [Example 3, 3-((4-((4-(3-(5-(tert-Butyl)-2-methoxy-3-(methylsulfonamido)phenyl)ureido)naphthalen-1-yl)oxy)pyridin-2-yl)amino)-5-methoxy-N-(2-(2-(2-methoxyethoxy)ethoxy)ethyl)benzamide]
- Mean hepatic extraction ratio [1]: 0.85
- concentration at 6 h [2, 9]: 114 ng/mL
- concentration at 1 h [2, 10]: 107 ng/g
- concentration at 2 h [2, 10]: 274 ng/g
- concentration at 4 h [2, 10]: 209 ng/g
- concentration at 6 h [2, 10]: 255 ng/g
- concentration at 8 h [2, 10]: 278 ng/g
- concentration at 12 h [2, 10]: 232 ng/g
- concentration at 24 h [2, 10]: 19.1 ng/g
- IC50 [3]: 4320 nM
- Kd [4]: 6.9 nM
- Kd [5]: 2.3 nM
- Kd [6]: 10 nM

SMILES: COCCOCCOCCOc1cc(Nc2nccc(Oc3ccc(NC(=O)Nc4cc(C(C)(C)C)cc(NS(C)(=O)=O)c4OC)c4ccccc34)n2)cc(OC)c1 [Example 4, N-(5-(tert-Butyl)-2-methoxy-3-(3-(4-((2-((3-methoxy-5-(2-(2-(2-methoxyethoxy)ethoxy)-ethoxy)phenyl)amino)pyrimidin-4-yl)oxy)naphthalen-1-yl)ureido)phenyl)methanesulfonamide]
- IL-1β Anterior ([7]; Table 7a): 20.3 ± 18.9 pg/mL
- IL-1β Posterior ([7]; Table 7a): 7.6 ± 7.6 pg/mL
- IL-6 Anterior ([7]; Table 7a): 642.3 ± 48.9 pg/mL
- IL-6 Posterior ([7]; Table 7a): 897.9 ± 120.3 pg/mL
- MCP-1 Anterior ([7]; Table 7a): 0 ± 0 pg/mL
- MCP-1 Posterior ([7]; Table 7a): 1.0 ± 1.0 pg/mL
- cytokine levels in both the anterior and posterior segments of the eyes [7]: significantly reduced
- IC50 [3]: 2660 nM
- Kd [4]: 19 nM
- Kd [5]: 3 nM
- Kd [6]: 14 nM

SMILES: C#Cc1cc(Nc2nccc(Oc3ccc(NC(=O)Nc4cc(C(C)(C)C)cc(NS(C)(=O)=O)c4OC)c4ccccc34)n2)cc(C(=O)NCCOCCOCCOC)c1 [Example 16]
- number of metabolites resulting from oxidation on the polyethylene glycol chain of the amide moiety ([8]; hepatocytes): 8
- products connected to metabolism at the naphthalene moiety ([8]; hepatocytes): no products were noted
- number of metabolites formed in hepatocytes ([8]; rat, Cynomolgus macaque or human hepatocytes, 0, 60 and 90 minutes): 9

SMILES: COc1cc(Nc2cc(Oc3ccc(NC(=O)Nc4cc(C(C)(C)C)cc(NS(C)(=O)=O)c4OC)c4ccccc34)ccn2)cc(C(=O)NCCN2CCOCC2)c1 [Example 27]
- IL-1β Anterior ([7]; Table 7b): 640 ± 263 pg/mL
- IL-1β Posterior ([7]; Table 7b): 394 ± 115 pg/mL
- IL-6 Anterior ([7]; Table 7b): 519 ± 196 pg/mL
- IL-6 Posterior ([7]; Table 7b): 424 ± 116 pg/mL
- MCP-1 Anterior ([7]; Table 7b): 282 ± 109 pg/mL
- MCP-1 Posterior ([7]; Table 7b): 352 ± 109 pg/mL
- cytokine levels in both the anterior and posterior segments of the eyes [7]: significantly reduced
- IC50 [3]: 4500 nM
- Kd [4]: 29 nM
- Kd [5]: 4.3 nM
- Kd [6]: 27 nM

SMILES: COc1c(NC(=O)Nc2ccc(Oc3ccnc(Nc4ccccc4)c3)c3ccccc23)cc(C(C)(C)C)cc1C(=O)NC1COC1 [Example 75, 5-(tert-Butyl)-2-methoxy-N-(oxetan-3-yl)-3-(3-(4-((2-(phenylamino)pyridin-4-yl)oxy)-naphthalen-1-yl)ureido)benzamide]
- Mean hepatic extraction ratio [1]: <0.50
- concentration at 1 h [2, 9]: 1.8 ng/mL
- concentration at 2 h [2, 9]: 1.5 ng/mL
- concentration at 4 h [2, 9]: 0 ng/mL
- concentration at 6 h [2, 9]: 0 ng/mL
- concentration at 8 h [2, 9]: 0 ng/mL
- concentration at 12 h [2, 9]: 0 ng/mL
- concentration at 24 h [2, 9]: 0 ng/mL
- concentration at 1 h [2, 10]: 17.8 ng/g
- concentration at 2 h [2, 10]: 56.2 ng/g
- concentration at 4 h [2, 10]: 1340 ng/g
- concentration at 6 h [2, 10]: 5720 ng/g
- concentration at 8 h [2, 10]: 350 ng/g
- concentration at 12 h [2, 10]: 391 ng/g
- concentration at 24 h [2, 10]: 7.5 ng/g
- IL-1β Anterior ([7]; Table 7b): 570 ± 146 pg/mL
- IL-1β Posterior ([7]; Table 7b): 414 ± 97 pg/mL
- IL-6 Anterior ([7]; Table 7b): 393 ± 118 pg/mL
- IL-6 Posterior ([7]; Table 7b): 489 ± 119 pg/mL
- MCP-1 Anterior ([7]; Table 7b): 239 ± 82 pg/mL
- MCP-1 Posterior ([7]; Table 7b): 279 ± 83 pg/mL
- cytokine levels in both the anterior and posterior segments of the eyes [7]: significantly reduced
- IC50 [3]: 6030 nM
- Kd [4]: 14 nM
- Kd [5]: 2.5 nM
- Kd [6]: 8.8 nM
